# In ChEMBL document CHEMBL1255302, “Genetic structures at the origin of acquisition of the beta-lactamase bla KPC gene” (2008):
# Columns and labels:
# Format in all cases: functional
# [1] = tested on: Escherichia coli; assay: Antibacterial activity against Escherichia coli harboring pNYC plasmid expressing blaKPC gene by Etest method in presence of beta-lactamase inhibitor clavulanic acid
# [2] = tested on: Escherichia coli; assay: Antibacterial activity against Escherichia coli DH10B expressing blaKPC gene by Etest method in presence of beta-lactamase inhibitor clavulanic acid
# [3] = tested on: Klebsiella pneumoniae; assay: Antibacterial activity against Klebsiella pneumoniae 633 by Etest method
# [4] = tested on: Klebsiella pneumoniae; assay: Antibacterial activity against Klebsiella pneumoniae KN2303 by Etest method in presence of beta-lactamase inhibitor clavulanic acid
# [5] = tested on: Escherichia coli; assay: Antibacterial activity against Escherichia coli harboring pBC633 plasmid expressing blaKPC gene by Etest method in presence of beta-lactamase inhibitor clavulanic acid
# [6] = tested on: Escherichia coli; assay: Antibacterial activity against Escherichia coli harboring pRYC plasmid expressing blaKPC gene by Etest method
# [7] = tested on: Escherichia coli; assay: Antibacterial activity against Escherichia coli harboring pRYC plasmid expressing blaKPC gene by Etest method in presence of beta-lactamase inhibitor clavulanic acid
# [8] = tested on: Klebsiella pneumoniae; assay: Antibacterial activity against Klebsiella pneumoniae 633 by Etest method in presence of beta-lactamase inhibitor clavulanic acid
# [9] = tested on: Escherichia coli; assay: Antibacterial activity against Escherichia coli harboring pCOL plasmid expressing blaKPC gene by Etest method in presence of beta-lactamase inhibitor clavulanic acid
# [10] = tested on: Pseudomonas aeruginosa; assay: Antibacterial activity against Pseudomonas aeruginosa 2404 plasmid by Etest method
# [11] = tested on: Pseudomonas aeruginosa; assay: Antibacterial activity against Pseudomonas aeruginosa KG2505 harboring pCOL plasmid by Etest method
# [12] = tested on: Pseudomonas aeruginosa; assay: Antibacterial activity against Pseudomonas aeruginosa 2404 plasmid by Etest method in presence of beta-lactamase inhibitor clavulanic acid
# [13] = tested on: Escherichia coli; assay: Antibacterial activity against Escherichia coli harboring pNGR plasmid expressing blaKPC gene by Etest method
# [14] = tested on: Escherichia coli; assay: Antibacterial activity against Escherichia coli harboring pBC2303 expressing blaKPC gene plasmid by Etest method in presence of beta-lactamase inhibitor clavulanic acid
# [15] = tested on: Pseudomonas aeruginosa; assay: Antibacterial activity against Pseudomonas aeruginosa KG2505 harboring pCOL plasmid by Etest method in presence of beta-lactamase inhibitor clavulanic acid
# [16] = tested on: Escherichia coli; assay: Antibacterial activity against Escherichia coli DH10B expressing blaKPC gene by Etest method
# [17] = tested on: Pseudomonas aeruginosa; assay: Antibacterial activity against Pseudomonas aeruginosa KG2505 by Etest method
# [18] = tested on: Escherichia coli; assay: Antibacterial activity against Escherichia coli harboring pBC2303 expressing blaKPC gene plasmid by Etest method
# [19] = tested on: Escherichia coli; assay: Antibacterial activity against Escherichia coli harboring pBC633 plasmid expressing blaKPC gene by Etest method
# [20] = tested on: Klebsiella pneumoniae; assay: Antibacterial activity against Klebsiella pneumoniae GR by Etest method in presence of beta-lactamase inhibitor clavulanic acid
# [21] = tested on: Escherichia coli; assay: Antibacterial activity against Escherichia coli harboring pCOL plasmid expressing blaKPC gene by Etest method
# [22] = tested on: Pseudomonas aeruginosa; assay: Antibacterial activity against Pseudomonas aeruginosa KG2505 by Etest method in presence of beta-lactamase inhibitor clavulanic acid
# [23] = tested on: Escherichia coli; assay: Antibacterial activity against Escherichia coli harboring pNYC plasmid expressing blaKPC gene by Etest method
# [24] = tested on: Klebsiella pneumoniae; assay: Antibacterial activity against Klebsiella pneumoniae YC by Etest method in presence of beta-lactamase inhibitor clavulanic acid
# [25] = tested on: Escherichia coli; assay: Antibacterial activity against Escherichia coli harboring pNGR plasmid expressing blaKPC gene by Etest method in presence of beta-lactamase inhibitor clavulanic acid
# [26] = tested on: Klebsiella pneumoniae; assay: Antibacterial activity against Klebsiella pneumoniae GR by Etest method
# [27] = tested on: Klebsiella pneumoniae; assay: Antibacterial activity against Klebsiella pneumoniae KN2303 by Etest method
# [28] = tested on: Klebsiella pneumoniae; assay: Antibacterial activity against Klebsiella pneumoniae YC by Etest method
Compound,MIC [1],MIC [2],MIC [3],MIC [4],MIC [5],MIC [6],MIC [7],MIC [8],MIC [9],MIC [10],MIC [11],MIC [12],MIC [13],MIC [14],MIC [15],MIC [16],MIC [17],MIC [18],MIC [19],MIC [20],further results
CO/N=C(\C(=O)N[C@@H]1C(=O)N2C(C(=O)O)=C(COC(C)=O)CS[C@H]12)c1csc(N)n1 [CEFOTAXIME],2 µg/mL,0.25 µg/mL,> 32 µg/mL,> 32 µg/mL,3 µg/mL,> 32 µg/mL,> 32 µg/mL,> 32 µg/mL,0.01 µg/mL,> 32 µg/mL,> 32 µg/mL,> 32 µg/mL,4 µg/mL,0.38 µg/mL,> 32 µg/mL,3 µg/mL,0.25 µg/mL,16 µg/mL,32 µg/mL,32 µg/mL,MIC [21]: 0.05 µg/mL; MIC [22]: 0.19 µg/mL; MIC [23]: 4 µg/mL; MIC [24]: 16 µg/mL; MIC [25]: 0.38 µg/mL; MIC [26]: > 32 µg/mL; MIC [27]: > 32 µg/mL; MIC [28]: > 32 µg/mL
C[C@@H](O)[C@H]1C(=O)N2C(C(=O)O)=C(S[C@@H]3CN[C@H](C(=O)N(C)C)C3)[C@H](C)[C@H]12 [MEROPENEM],0.25 µg/mL,0.1 µg/mL,4 µg/mL,> 32 µg/mL,0.38 µg/mL,3 µg/mL,2 µg/mL,2 µg/mL,0.002 µg/mL,> 32 µg/mL,> 32 µg/mL,> 32 µg/mL,0.38 µg/mL,0.12 µg/mL,3 µg/mL,0.38 µg/mL,0.05 µg/mL,0.38 µg/mL,2 µg/mL,3 µg/mL,MIC [21]: 0.01 µg/mL; MIC [22]: 0.01 µg/mL; MIC [23]: 2 µg/mL; MIC [24]: 1 µg/mL; MIC [25]: 0.01 µg/mL; MIC [26]: 6 µg/mL; MIC [27]: > 32 µg/mL; MIC [28]: 2 µg/mL
CC1(C)S[C@@H]2[C@H](NC(=O)[C@H](C(=O)O)c3ccsc3)C(=O)N2[C@H]1C(=O)O [TICARCILLIN],> 256 µg/mL,> 256 µg/mL,> 256 µg/mL,> 256 µg/mL,> 256 µg/mL,> 256 µg/mL,> 256 µg/mL,> 256 µg/mL,1.5 µg/mL,> 256 µg/mL,> 256 µg/mL,> 256 µg/mL,> 256 µg/mL,> 256 µg/mL,> 256 µg/mL,> 256 µg/mL,0.38 µg/mL,> 256 µg/mL,> 256 µg/mL,> 256 µg/mL,MIC [21]: 2 µg/mL; MIC [22]: 0.25 µg/mL; MIC [23]: > 256 µg/mL; MIC [24]: > 256 µg/mL; MIC [25]: > 256 µg/mL; MIC [26]: > 256 µg/mL; MIC [27]: > 256 µg/mL; MIC [28]: > 256 µg/mL
